Read-outs that look alike come from different tables or passages of the source.
Key:
Aβ42 secretion [1] = test: Aβ40/Aβ42 ELISA of culture supernatants, CHO cells expressing APP751; format: cell-based, Chinese hamster
Protocol: (§1) Cell cultures were maintained in standard cell culture media supplemented with 10% fetal bovine serum and 100 U/mL penicillin/streptomycin (Life Technologies Inc., Germany).
(§2) For analyses of Aβ secretion, APP processing, and notch cleavage, cells were cultured in serum-containing media and pretreated overnight with a specific NSAID. The next day, media were changed and cultures were treated with the same NSAID for another 24 hours.
(§3) Aβ was detected by sandwich enzyme-linked immunosorbent assay (ELISA) as described by Murphy et al. (2000) J Biol Chem 275:26277-84. Following NSAID treatment, culture supernatants were collected, and cell debris was removed by centrifugation. Complete protease inhibitor cocktail (Roche Molecular Biochemicals, IN, USA) was added to the media and Aβ40 and Aβ42 levels were quantified using end-specific Aβ ELISAs. All measurements were performed in duplicate.
The effect of sulindac sulfone on Aβ42 secretion was examined. Sulindac sulfone is an oxidation product of the pro-drug sulindac. […] Cell cultures were treated with increasing concentrations of sulindac sulfone. Aβ40 and Aβ42 levels in culture supernatants were analyzed using ELISA.
(§4) Aβ40 and Aβ42 levels in cell culture supernatants were analyzed using ELISA. Aβ42/Aβ40 ratios and total Aβ levels were normalized to values obtained from DMSO-treated cultures. […] NSAIDs were verified using NMR and mass spectrometry.

Aβ42 secretion [2] = test: Non-selective and selective COX-inhibitors tested for effect on Aβ42 levels in cell cultures (Table 1 summary); format: cell-based; details: for Aβ42/Aβ40 ratio: effect up to the highest conc. tested listed per drug in Table 1
Protocol: All measurements were performed in duplicate.
as §4

Aβ42 secretion [3] = test: Primary in vitro screen, CHO-APP695NL,I,his cells, end-specific Aβ40 and Aβ42 ELISAs; format: cell-based, Chinese hamster; details: Cricetulus griseus, 6 h, six-hour culture supernatants
Protocol: Aβ40 and Aβ42 levels in culture supernatants were determined for each time points using ELISA.
In a primary screen, the effects of NSAIDs on Aβ42 secretion by a CHO cell line that expressed APP(CHO-APP695NL,I,his) were examined. Duplicate cell cultures were treated with (a) a vehicle, (b) 10 μM of NSAID, or (c) 100 μM of NSAID.
To determine Aβ40 and Aβ42 levels, six-hour culture supernatants taken from cells grown in a single well of a twenty-four-well plate were used in end-specific Aβ40 and Aβ42 ELISAs (Suzuki, et al. (1994) Sci 264:[…]). Aβ40 and Aβ42 levels of cultures treated with NSAID were compared with those of cultures treated with the vehicle alone. […] NSAIDs that caused either selective reduction of Aβ42 levels or reduction in both Aβ40 and Aβ42 levels are subjected to a secondary screen.

[4] = plasma concentration of the drug; cited from earlier work
COX-1/COX-2 = details: cited from earlier work
Aβ42 secretion [5] = test: Aβ40/Aβ42 ELISA of culture supernatants, CHO cells expressing APP751 and PS-1 mutant M146L; format: cell-based, Chinese hamster; details: concentrations up to 100 μM
Protocol: as §1, §2, §3
Levels of Aβ40 and Aβ42 in culture supernatants were analyzed using ELISA. […] Aβ42/Aβ40 ratios and total Aβ levels (i.e., the sum of Aβ40 and Aβ42 values) were normalized to values obtained from DMSO-treated cells. Results shown were averages of two or three experiments performed in duplicate.
Aβ40 and Aβ42 levels in culture supernatants were analyzed using ELISA as described in Example 3. […] Aβ42/Aβ40 ratios and total Aβ levels were normalized to values obtained from ethanol-treated cells. Results shown were averages of two or three experiments, each performed in duplicate.

APP processing = test: Western blot of APP, APP CTFs and sAPP, CHO cells expressing APP751; format: cell-based, Chinese hamster; details: 150 μM; data not shown
Description: Expression of holo-APP and APP C-terminal fragments (CTFs) was examined by Western blot analysis using antibody CT-15. APP secretion was examined by Western blotting using a mixture of 5A3/IG7 antibodies. APP turnover was examined by pulse labeling of CHO cells with 150 μCi [^35S]-methionine for fifteen minutes followed by a cold chase step for up to four hours. Cell lysates were immunoprecipitated with antibody CT-15, subjected to SDS-PAGE, and analyzed by phosphor imaging.
Cell lysates were prepared, and steady-state APP levels were examined using 4-12% gradient-gel electrophoresis and western blotting using the polyclonal antibody CT15.

[6] = system: Notch intramembrane cleavage; test: Notch intramembrane cleavage and NICD formation in HEK293 cells; format: cell-based; details: 150 μM; data not shown
Description: Two Notch-encoding vector constructs were used in examining Notch processing. These were a construct expressing a myc-tagged NH2-terminal truncated Notch-1 polypeptide (NotchΔEMV), and a construct expressing only the Notch intracellular cytoplasmic domain (NICD) (see Kopan et al. (1996) Proc Natl Acad Sci USA 93:1683-8). In the construct expressing a myc-tagged NH2-terminal truncated Notch-1 polypeptide, the start codon, a methionine at position 1726, was mutated to a valine to eliminate translation initiation.
Notch intramembrane cleavage and formation of NICD were analyzed in kidney HEK293 cells. The myc-tagged NotchΔEMV construct encoding a constitutively cleaved Notch variant was transiently transfected into HEK293 cells. […] Then they were pulse labeled with ^35S-methionine for thirty minutes and chased for two hours. Cell lysates were prepared and subjected to immunoprecipitation with monoclonal antibody 9E10. Immunoprecipitated proteins were subjected to SDS-PAGE and phosphor imaging analyses.

[7] = cell cultures, cell line and concentration not stated

With `CC(=O)Oc1ccccc1C(=O)O` [Aspirin, Acetylsalicylic acid] the Aβ42 secretion (Aβ42 secretion [1]; concentrations of up to 3 mM, data not shown) was “no reductions in Aβ42 secretion were observed”, the Aβ42/Aβ40 ratio (Aβ42 secretion [2]) was “no effect” and the activity at 100 µM (Aβ42 secretion [3]; read-out: % Control % Aβ42) was 104%. The activity at 100 µM (Aβ42 secretion [3]; read-out: % Control Aβ40) was 93%, the activity at 100 µM (Aβ42 secretion [3]; read-out: % Control Aβ42) was 99% and the Plasma [4] was 111 µM. For the same compound, the “COX-1/COX-2 selectivity# (1 = equal activity)” value (shortened to “COX-1/COX-2 selectivity#”) (COX-1/COX-2) was 166.
In the case of `COc1ccc2c(c1)c(CC(=O)O)c(C)n2C(=O)c1ccc(Cl)cc1` [Indomethacin, indomethacin], the “total Aβ levels” value (Aβ42 secretion [5]) is reported as “not significantly affected”, the “accumulation of APP-CTFs” value (APP processing) is reported as “did not cause” and the “inhibition of Notch cleavage” value [6] is reported as “did not cause”. It also gave an activity at 100 µM (Aβ42 secretion [3]; read-out: % Control % Aβ42) of 68%, an activity at 100 µM (Aβ42 secretion [3]; read-out: % Control Aβ40) of 101% and an activity at 100 µM (Aβ42 secretion [3]; read-out: % Control Aβ42) of 69%.
With `CS(=O)(=O)Nc1ccc([N+](=O)[O-])cc1OC1CCCCC1` [NS-398] the Aβ42/Aβ40 ratios (Aβ42 secretion [2]; [7]) was “did not affect”, the “total Aβ levels” value (Aβ42 secretion [2]; [7]) was “did not affect” and the Aβ42/Aβ40 ratio (Aβ42 secretion [2]) was “no effect”. The activity at 10 µM (Aβ42 secretion [3]; read-out: % Control % Aβ42) was 132%, the activity at 10 µM (Aβ42 secretion [3]; read-out: % Control Aβ40) was 101% and the activity at 10 µM (Aβ42 secretion [3]; read-out: % Control Aβ42) was 146%. The “COX-1/COX-2 selectivity#” value (COX-1/COX-2) was “.07”.
In the case of `CS(=O)(=O)c1ccc(C2=C(c3ccccc3)C(=O)OC2)cc1` [Rofecoxib, rofecoxib], the Aβ42/Aβ40 ratio (Aβ42 secretion [1]; CHO cells expressing APP751, 20 μM) is listed as “not seen”, the Aβ42/Aβ40 ratio (Aβ42 secretion [2]) is listed as “no effect” and the Plasma [4] is listed as 0.003 µM. For the same compound, the “COX-1/COX-2 selectivity#” value (COX-1/COX-2) was “.001”.
